SMILES strings stand for the structures. Activity calls are given as the source filed them. The calls are words filed in the database; no cut-off is given here.

The subject of test [1] is Severe fever with thrombocytopenia syndrome virus. The test can be described thus: In vivo antiviral activity against SFTSV infected in mouse harboring IFNAR1tm1Agt assessed as improvement in lymphocytes percentage at 300 mg/kg, po qd treated for 7 days relative to control. In kind it is functional, organism-based. The following applies: time 7.0 day.
For test [2] the test system is unchanged. The test can be described thus: In vivo antiviral activity against SFTSV infected in mouse harboring IFNAR1tm1Agt assessed as improvement in lymphocytes percentage treated orally once daily for 7 days. The following applies: dose 2.5-100 mg/kg, route po, time 7.0 day. In kind it is functional, organism-based.

`NC(=O)c1nc(F)cnc1O`: the result in test [1] was Active. As for `CC(C)C(=O)OC[C@@]1(F)O[C@@H](n2ccc(=O)n(COC(=O)c3cccnc3)c2=O)[C@H](OC(=O)C(C)C)[C@@H]1OC(=O)C(C)C`, in test [2], the Activity result was “Dose-dependent-effect”.

Source of the values: ChEMBL document CHEMBL6177980 (J Med Chem, 2025).
